Assay results reported in ChEMBL document CHEMBL1122903, “Synthesis, in vitro [3H]prazosin displacement, and in vivo activity of 3-aryl-4,5,6,7-tetrahydropyrazolo[4,3-c]pyridines, a new class of antihypertensive agents” (J Med Chem, 1985).
Each block holds one compound with its values, some of them ahead of it.

How the values were obtained:
[1] = molecular target: T1, Adrenergic receptor alpha-1 (Rattus norvegicus, UniProt P15823+P23944+P43140); test: Ability to displace [3H]prazosin from postsynaptic alpha-1 adrenergic receptor of rat in vitro.; format: protein assay
T1 sequence (P15823 whole entry): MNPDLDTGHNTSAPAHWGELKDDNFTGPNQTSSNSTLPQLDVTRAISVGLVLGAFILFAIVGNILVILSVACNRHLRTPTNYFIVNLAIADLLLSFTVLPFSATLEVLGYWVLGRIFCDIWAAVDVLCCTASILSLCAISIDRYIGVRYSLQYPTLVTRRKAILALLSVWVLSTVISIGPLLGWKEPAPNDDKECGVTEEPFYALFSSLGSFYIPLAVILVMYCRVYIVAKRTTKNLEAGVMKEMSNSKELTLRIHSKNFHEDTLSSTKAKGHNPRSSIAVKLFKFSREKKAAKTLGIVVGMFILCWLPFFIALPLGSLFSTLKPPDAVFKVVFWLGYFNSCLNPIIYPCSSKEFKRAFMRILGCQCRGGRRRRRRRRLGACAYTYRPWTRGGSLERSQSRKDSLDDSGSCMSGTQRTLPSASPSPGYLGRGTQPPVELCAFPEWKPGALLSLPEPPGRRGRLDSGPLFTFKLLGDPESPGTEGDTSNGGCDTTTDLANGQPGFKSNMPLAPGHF
T1 sequence (P23944 whole entry): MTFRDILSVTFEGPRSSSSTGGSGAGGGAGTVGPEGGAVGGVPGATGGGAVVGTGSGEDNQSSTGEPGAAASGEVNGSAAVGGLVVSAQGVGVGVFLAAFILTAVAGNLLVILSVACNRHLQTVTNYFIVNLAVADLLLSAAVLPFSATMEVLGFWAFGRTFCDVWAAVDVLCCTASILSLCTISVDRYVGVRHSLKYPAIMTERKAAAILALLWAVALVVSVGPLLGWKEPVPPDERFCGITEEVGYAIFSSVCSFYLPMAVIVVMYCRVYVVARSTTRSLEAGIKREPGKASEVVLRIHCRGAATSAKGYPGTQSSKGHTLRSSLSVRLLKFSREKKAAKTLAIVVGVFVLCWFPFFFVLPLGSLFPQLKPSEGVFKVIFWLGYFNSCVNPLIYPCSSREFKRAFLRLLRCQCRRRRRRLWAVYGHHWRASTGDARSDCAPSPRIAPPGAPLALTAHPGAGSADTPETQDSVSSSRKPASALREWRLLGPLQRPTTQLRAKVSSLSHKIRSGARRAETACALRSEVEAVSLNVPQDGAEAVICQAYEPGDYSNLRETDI
T1 sequence (P43140 whole entry): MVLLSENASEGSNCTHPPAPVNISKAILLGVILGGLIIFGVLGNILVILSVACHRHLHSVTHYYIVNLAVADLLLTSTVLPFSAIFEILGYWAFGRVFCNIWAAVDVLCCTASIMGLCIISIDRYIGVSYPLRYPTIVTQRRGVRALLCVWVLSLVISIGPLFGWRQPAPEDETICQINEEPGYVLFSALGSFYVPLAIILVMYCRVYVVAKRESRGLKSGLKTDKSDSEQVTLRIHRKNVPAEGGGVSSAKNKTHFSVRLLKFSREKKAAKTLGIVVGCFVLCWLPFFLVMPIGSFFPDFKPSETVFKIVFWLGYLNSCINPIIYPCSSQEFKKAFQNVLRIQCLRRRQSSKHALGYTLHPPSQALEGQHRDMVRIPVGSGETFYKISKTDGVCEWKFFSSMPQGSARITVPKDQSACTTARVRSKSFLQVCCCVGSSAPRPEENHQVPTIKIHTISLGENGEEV

Rattus norvegicus [2] = test: Antihypertensive activity on spontaneously hypertensive rats, when administered orally at a dose 30 mg/kg; format: functional; conditions: route oral
Canis familiaris [3] = test: Heart rate after 4 hours of oral administration in renal hypertensive dogs at dose 2 mg/kg; format: functional, Canis lupus familiaris
Canis familiaris [4] = test: Systolic blood pressure after 2 hours of oral administration in renal hypertensive dogs at dose 1 mg/kg; format: functional, Canis lupus familiaris
Canis familiaris [5] = test: Systolic blood pressure after 4 hours of oral administration in renal hypertensive dogs at dose 1 mg/kg (mean +/- SE for 3 animals /dose); format: functional, Canis lupus familiaris
Rattus norvegicus [6] = test: Antihypertensive activity on spontaneously hypertensive rats when administered orally at a dose 50 mg/kg.; format: functional; conditions: route oral
Canis familiaris [7] = test: Peak effect after 8 hours on systolic blood pressure after 1 day of oral administration in renal hypertensive dogs at dose 0.5 mg/kg; format: functional, Canis lupus familiaris, Artery
Canis familiaris [8] = test: Peak effect after 8 hours on heart rate after 1 days of oral administration in renal hypertensive dogs at dose 0.5 mg/kg; format: functional, Canis lupus familiaris
Canis familiaris [9] = test: Systolic blood pressure after 8 hours of oral administration in renal hypertensive dogs at dose 2 mg/kg; format: functional, Canis lupus familiaris
Canis familiaris [10] = test: Heart rate after 8 hours of oral administration in renal hypertensive dogs at dose 1 mg/kg; format: functional, Canis lupus familiaris
Canis familiaris [11] = test: Peak effect after 8 hours systolic blood pressure after 3 days of oral administration in renal hypertensive dogs at dose 0.5 mg/kg; format: functional, Canis lupus familiaris, Artery
Canis familiaris [12] = test: Heart rate after 6 hours of oral administration in renal hypertensive dogs at dose 1 mg/kg; format: functional, Canis lupus familiaris
Canis familiaris [13] = test: Systolic blood pressure after 6 hours of oral administration in renal hypertensive dogs at dose 2 mg/kg; format: functional, Canis lupus familiaris
Canis familiaris [14] = test: Peak effect after 8 hours on systolic blood pressure after 7 days of oral administration in renal hypertensive dogs at dose 0.5 mg/kg; format: functional, Canis lupus familiaris, Artery
Canis familiaris [15] = test: Heart rate after 8 hours of oral administration in renal hypertensive dogs at dose 2 mg/kg; format: functional, Canis lupus familiaris
Canis familiaris [16] = test: Heart rate after 8 hours of oral administration in renal hypertensive dogs at dose 0.25 mg/kg; format: functional, Canis lupus familiaris
Canis familiaris [17] = test: Heart rate after 4 hours of oral administration in renal hypertensive dogs at dose 0.25 mg/kg; format: functional, Canis lupus familiaris
Canis familiaris [18] = test: Systolic blood pressure after 2 hours of oral administration in renal hypertensive dogs at dose 0.25 mg/kg; format: functional, Canis lupus familiaris
Canis familiaris [19] = test: Systolic blood pressure after 8 hours of oral administration in renal hypertensive dogs at dose 0.25 mg/kg; format: functional, Canis lupus familiaris
Canis familiaris [20] = test: Systolic blood pressure after 0 hours of oral administration in renal hypertensive dogs at dose 2 mg/kg; format: functional, Canis lupus familiaris
Canis familiaris [21] = test: Systolic blood pressure after 4 hours of oral administration in renal hypertensive dogs at dose 0.25 mg/kg; format: functional, Canis lupus familiaris
Canis familiaris [22] = test: Heart rate after 2 hours of oral administration in renal hypertensive dogs at dose 2 mg/kg; format: functional, Canis lupus familiaris
Canis familiaris [23] = test: Heart rate after 2 hours of oral administration in renal hypertensive dogs at dose 0.25 mg/kg; format: functional, Canis lupus familiaris
Canis familiaris [24] = test: Heart rate after 2 hours of oral administration in renal hypertensive dogs at dose 1 mg/kg; format: functional, Canis lupus familiaris
Canis familiaris [25] = test: Peak effect after 8 hours on heart rate after 3 days of oral administration in renal hypertensive dogs at dose 0.5 mg/kg; format: functional, Canis lupus familiaris
Canis familiaris [26] = test: Systolic blood pressure after 6 hours of oral administration in renal hypertensive dogs at dose 0.25 mg/kg; format: functional, Canis lupus familiaris
Canis familiaris [27] = test: Peak effect after 8 hours on heart rate after 7 days of oral administration in renal hypertensive dogs at dose 0.5 mg/kg; format: functional, Canis lupus familiaris
Canis familiaris [28] = test: Systolic blood pressure after 6 hours of oral administration in renal hypertensive dogs at dose 1 mg/kg; format: functional, Canis lupus familiaris
Canis familiaris [29] = test: Systolic blood pressure after 2 hr of oral administration in renal hypertensive dogs at dose 2 mg/kg; format: functional, Canis lupus familiaris
Canis familiaris [30] = test: Systolic blood pressure after 8 hours of oral administration in renal hypertensive dogs at dose 1 mg/kg; format: functional, Canis lupus familiaris
Canis familiaris [31] = test: Systolic blood pressure after 0 hours of oral administration in renal hypertensive dogs at dose 0.25 mg/kg; format: functional, Canis lupus familiaris
Canis familiaris [32] = test: Heart rate after 0 hours of oral administration in renal hypertensive dogs at dose 0.25 mg/kg; format: functional, Canis lupus familiaris
Canis familiaris [33] = test: Heart rate after 6 hours of oral administration in renal hypertensive dogs at dose 2 mg/kg; format: functional, Canis lupus familiaris
Canis familiaris [34] = test: Heart rate after 0 hours of oral administration in renal hypertensive dogs at dose 2 mg/kg; format: functional, Canis lupus familiaris
Canis familiaris [35] = test: Systolic blood pressure after 4 hours of oral administration in renal hypertensive dogs at dose 2 mg/kg; format: functional, Canis lupus familiaris
Canis familiaris [36] = test: Heart rate after 0 hours of oral administration in renal hypertensive dogs at dose 1 mg/kg; format: functional, Canis lupus familiaris
Canis familiaris [37] = test: Heart rate after 6 hours of oral administration in renal hypertensive dogs at dose 0.25 mg/kg; format: functional, Canis lupus familiaris
Canis familiaris [38] = test: Systolic blood pressure after 0 hours of oral administration in renal hypertensive dogs at dose 1 mg/kg; format: functional, Canis lupus familiaris
Canis familiaris [39] = test: Heart rate after 4 hours of oral administration in renal hypertensive dogs at dose 1 mg/kg; format: functional, Canis lupus familiaris
Canis familiaris [40] = test: Peak effect after 8 hours on systolic blood pressure after 2 days of oral administration in renal hypertensive dogs at dose 0.5 mg/kg; format: functional, Canis lupus familiaris, Artery
Canis familiaris [41] = test: Peak effect after 8 hours on heart rate after 2 day of oral administration in renal hypertensive dogs at dose 0.5 mg/kg; format: functional, Canis lupus familiaris

Ki [1]: 362 nM
SMILES: CCn1nc(-c2ccc(F)cc2)c2c1CCN(C)C2.CS(=O)(=O)O
Delta p (Rattus norvegicus [2]): -37%

Ki [1]: 14.7 nM
SMILES: Cl.Fc1ccc(-c2nn(Cc3ccccc3)c3c2CNCC3)cc1
Heart rate (Canis familiaris [3]): 104 beats min-1
SBP (Canis familiaris [4]): 198 mmHg
SBP (Canis familiaris [5]): 172 mmHg
Delta p (Rattus norvegicus [6]): -31%
SBP (Canis familiaris [7]): 160 mmHg
Heart rate (Canis familiaris [8]): 100 beats min-1
SBP (Canis familiaris [9]): 156 mmHg
Heart rate (Canis familiaris [10]): 93 beats min-1
SBP (Canis familiaris [11]): 160 mmHg
Heart rate (Canis familiaris [12]): 96 beats min-1
SBP (Canis familiaris [13]): 155 mmHg
SBP (Canis familiaris [14]): 155 mmHg
Heart rate (Canis familiaris [15]): 90 beats min-1
Heart rate (Canis familiaris [16]): 109 beats min-1
Heart rate (Canis familiaris [17]): 108 beats min-1
SBP (Canis familiaris [18]): 202 mmHg
SBP (Canis familiaris [19]): 190 mmHg
SBP (Canis familiaris [20]): 203 mmHg
SBP (Canis familiaris [21]): 200 mmHg
Heart rate (Canis familiaris [22]): 107 beats min-1
Heart rate (Canis familiaris [23]): 112 beats min-1
Heart rate (Canis familiaris [24]): 109 beats min-1
Heart rate (Canis familiaris [25]): 105 beats min-1
SBP (Canis familiaris [26]): 188 mmHg
Heart rate (Canis familiaris [27]): 95 beats min-1
SBP (Canis familiaris [28]): 165 mmHg
SBP (Canis familiaris [29]): 183 mmHg
SBP (Canis familiaris [30]): 165 mmHg
SBP (Canis familiaris [31]): 200 mmHg
Heart rate (Canis familiaris [32]): 110 beats min-1
Heart rate (Canis familiaris [33]): 97 beats min-1
Heart rate (Canis familiaris [34]): 110 beats min-1
SBP (Canis familiaris [35]): 165 mmHg
Heart rate (Canis familiaris [36]): 107 beats min-1
Heart rate (Canis familiaris [37]): 105 beats min-1
SBP (Canis familiaris [38]): 200 mmHg
Heart rate (Canis familiaris [39]): 105 beats min-1
SBP (Canis familiaris [40]): 155 mmHg
Heart rate (Canis familiaris [41]): 95 beats min-1
